Source: patent publication US20240245677A1, “SELECTED COMPOUNDS FOR TARGETED DEGRADATION OF BRD9” (C4 THERAPEUTICS, INC., priority 2021, published 2024)

Assays:
HepG2 cells = assay: HepG2 in vitro viability assay (CellTiter-Glo, 72 hours); format: cell-based, human; details: 72 hours
Method: (§1) This assay assessed the general cytotoxicity of Compound 1 using the human hepatocarcinoma cell line HepG2. HepG2 cells were treated with Compound 1 for 72 hours and cellular viability was measured following the addition of CellTiter-Glo® 2.0 reagent (Promega) according to manufacturer's instructions. Agents were solubilized in DMSO and tested in the HepG2 cell line at concentrations ranging from 0.3 nM to 10 μM.
(§2) HepG2 cells were obtained from ATCC (Catalog No. HB-8065, Manassas, VA, USA) and maintained in MEM medium (Catalog No. 11095080, ThermoFisher Scientific, Waltham, MA, USA) supplemented with 10% heat inactivated fetal bovine serum (FBS) (Catalog No. 16000-044, Gibco, Grand Island, NY, USA) at 37° C. in an atmosphere of 5% CO2 in air. The cells were routinely sub-cultured to maintain cell density between 3×10^5-1.5×10^6 cells/mL, not to exceed 20 passages. Cells were washed with PBS, trypsinized for 5 min at 37° C., and resuspended in growth media. An aliquot was diluted 2× with Trypan Blue solution 0.4% (Catalog No. 15250061, ThermoFisher Scientific, Waltham, MA, USA) and cell count was determined. Cell concentration was adjusted with growth media to 1.0×10^4 cells/mL.
(§3) Compound 1 was prepared by dissolving neat compound in DMSO (Catalog No. D8418, Sigma-Aldrich, Inc., St. Louis, MO, USA) to generate 10 mM stock solution and stored at −20° C. 10 mM DMSO stock solution of Compound 1 was serially diluted (half log) in DMSO to generate 10-point dose series ([…]) in acoustic ready 384-well low dead volume microplates (Catalog No. LP-0200, Beckman Coulter Life Sciences, Indianapolis, IN, USA). Using an Echo 550 Acoustic Liquid Handler Handler (Beckman Coulter Life Sciences, Indianapolis, IN, USA), 50 nL of serially diluted compound solutions were dispensed directly in quadruplicate to each 384-well black TC-treated microplate (Catalog No. 3571, Corning, Glendale, CA, USA). 50 nL DMSO was transferred to all control wells.
(§4) 50 μL HepG2 cells suspended in growth media at 1.0×10^4 cells/mL (500 cells/well) were dispensed using a Multidrop Combi Reagent Dispenser (Catalog No. 5840300, ThermoFisher Scientific, Waltham, MA, USA) to each well of 384-well black TC-treated microplates containing quadruplicate concentration range of test compound and DMSO controls. Plates were incubated at 37° C., 5% CO2 for 72 hours. Final concentration of DMSO was 0.1% for all samples.
(§5) Additional cell plates (TO plates) were prepared by dispensing cells into a blank 384-well black TC-treated microplate to represent cytostatic controls and processed for viability detection immediately after cell dispensing.
(§6) HepG2 cell viability was determined based on quantification of ATP using CellTiter-Glo® 2.0 luminescent assay kit (Catalog No. G9243, Promega, Madison, WI, USA), which signals the presence of metabolically active cells. On Day 0 (Time 0) and Day 3 (72 hours) 25 μL CellTiter-Glo® reagent was added to each well of cell plates except the wells in column 24 and the luminescence was measured after 4 hours incubation at room temperature using an EnVision® Multilabel Reader (Catalog No. 2104-0010, Perkin Elmer Inc., Dumfries, VA, USA). Column 24 (cells without CellTiter-Glo® addition) was used as plate background or positive control (P).
(§7) Cytostatic control value (CT0) was computed from TO plate read using untreated cell signals (UT=0) and positive control signals (PT=0) as below.
(§8) Percent response of compound-treated samples at a time point T were calculated by normalizing the signal with P and DMSO treated negative (N) controls on the same microtiter plate and the CT0 control:
(§9) The Response % is thus 100% if the CellTiter-Glo® signal equals that of the DMSO treated controls (i.e., normal cell growth), 0% if it equals that of untreated cell at TO (i.e., cytostasis), and −100% if it equals the no CellTiter-Glo® reagent controls (i.e., complete cytotoxicity). […]

[1] = as above; format: cell-based, human; details: human, HepG2 cells, 72-hour treatment
Method: as §1, §2, §3, §4, §5, §6, §7, §8, §9

[2] = Crystallization by addition of anti-solvent; format: physicochemical; details: for Comments: form after seeding: add Pattern G as seeds, slurry for 5 days
Method: Based on approximate solubility results, about 20 mg of Compound 1 free form Pattern E was dissolved in the minimal amount of good solvent. Anti-solvent was added into the obtained solutions slowly. Precipitates were collected by centrifuged. The solid part (wet cake) were investigated by XRPD.

Q: Which results are given for `COc1cc(-c2cn(C)c(=O)c(C)c2C)cc(OC)c1CN1CC[C@H](N2CCN(c3ccc(N[C@H]4CCC(=O)NC4=O)cc3F)CC2)C(F)(F)C1` [Compound 1, (S)-3-((4-(4-((S)-1-(2,6-dimethoxy-4-(1,4,5-trimethyl-6-oxo-1,6-dihydropyridin-3-yl)benzyl)-3,3-difluoropiperidin-4-yl)piperazin-1-yl)-3-fluorophenyl)amino)-piperidine-2,6-dione]?
A: inhibition at 10 µM (HepG2 cells; Homo sapiens, HepG2, read-out: growth inhibition of HepG2 cells relative to 0.1% DMSO controls, 10 μM): 33.4 ± 9.9%; effect on viability / growth of HepG2 cells (HepG2 cells; concentrations up to 3.3 μM): No significant effect; viability at 72 h, 0.00032 µM ([1]; 0.32 nM): 111%; viability at 72 h, 0.00101 µM ([1]; 1.01 nM): 102%; viability at 72 h, 0.00317 µM ([1]; 3.17 nM): 97.7%; viability at 72 h, 0.01 µM ([1]; 10.0 nM): 91.6%; viability at 72 h, 0.0317 µM ([1]; 31.7 nM): 97.4%; viability at 72 h, 0.1 µM ([1]; 100 nM): 92.5%; viability at 72 h, 0.317 µM ([1]; 317 nM): 102%; viability at 72 h, 1 µM ([1]; 1000 nM): 79%; viability at 72 h, 3.161 µM ([1]; 3161 nM): 84.6%; viability at 72 h, 9.99 µM ([1]; 9990 nM): 66.6%; Comments: form after seeding ([2]; 2-MeTHF/110, Heptane/200): for 5 days: Pattern G; Comments: form after seeding ([2]; DCM/200, Heptane/400): Pattern F; Comments: form after seeding ([2]; THF/40, Heptane/160): for 5 days: Pattern G; XRPD ([2]; solvent 1,4-dioxane/200, anti-solvent Heptane/400): Pattern F; Comments ([2]; solvent 2-MeTHF/200, anti-solvent MTBE/200): Oil-like sample; XRPD ([2]; solvent DCM/200, anti-solvent MTBE/400): Pattern F
